{
  "source": "patent US12565474B2",
  "about": "“Discovery, total synthesis, and bioactivity of doscadenamides” (priority 2019, dated 2026)",
  "key": {"MDA-MB-231 cells": {"test_system": "MDA-MB-231 cells", "experiment": "MDA-MB-231 cell viability (MTT) with TRAIL, synergy evaluation", "settings": "for synergistic effect with TRAIL / sensitization (Bliss independence): 3 h pretreatment; for synergistic effect with TRAIL / sensitization (Bliss independence) / cell viability after pretreatment and TRAIL co-treatment: then TRAIL 20 ng/mL for 24 h; for cytotoxicity compared to doscadenamide A (1a): MDA-MB-231; for cell viability after pretreatment and TRAIL co-treatment: 3 h pretreatment (5 μM, 2 μM)", "procedure": "MDA-MB-231 cell viability after 3 h pretreatment with DMSO (solvent control), C12 as well as doscadenamide A (1a) and its structural analogs, B) 5 μM and C) 2 μM followed by combined TRAIL (20 ng/mL) treatment for 24 h. […] MDA-MB-231 cells were treated with doscadenamide A (1a) and its structural analogs for 3 h, followed by treatment with TRAIL (20 ng/mL) for 24 h, C12 was included as positive control. “A Bliss independence” is the difference between observed growth inhibition and Bliss expectation. Values greater than zero represent a synergistic response, represented as red in the figure. Bliss expectation is C=(A+B)−(A×B), where A and B are the growth inhibition fractions of two compounds at a given dose. Cell viability was quantified using MTT assay.\nMDA-MB-231 cells were pretreated with C12, doscadenamides or solvent control for 3 h and then stimulated with TRAIL for 24 h (FIGS. 20B and 20C). We measured cell viability and calculated the A Bliss independence of each compound with TRAIL."}, "V. harveyi BB120 strain": {"test_system": "V. harveyi BB120 strain", "experiment": "Bioluminescence modulation in V. harveyi", "assay_type": "cell-based, Vibrio harveyi", "settings": "for QS activation (bioluminescence, ΔLUM normalized by OD600): concentration range 10-200 PM", "experimental": "FIGS. 19A-C depict QS activity in different systems. FIG. 19A is a graph showing activity of doscadenamide A (1a) in E. coli reporter gene assay using pSB1075 (wild-type) and point mutants (Y56F, W60F and D73N). […] C12 was used as the positive control. […] AI-1 is a reported quorum sensing autoinducer and was used as the positive control.\nBioluminescent V. harveyi BB120 strain (wild-ype) was cultivated in AB media overnight (15-16 h) at 30° C. (OD600 is about 2.0-2.5). The overnight cultivated strain […] was diluted to 10 mL by AB media (OD600<0.1). 100 μL the diluted BB120 strain was distributed to each well of 96-well white plate. The solution of each tested compound in DMSO (0.5 μL) at different concentration was added to BB120 cultures on plate. Triplicate was conducted for each compound and each concentration. After addition, bacterial cultures were incubated at 30° C. for 7 hours. Then the emitted luminescence and OD600 was measured by BioTek Synergy H1 plate reader. AI-1 and DMSO were used as positive control and negative control, respectively."}, "PARP": {"test_system": "PARP", "experiment": "Western blot of PARP cleavage in MDA-MB-231 cells with TRAIL", "assay_type": "cell-based", "settings": "MDA-MB-231, TRAIL 20 ng/mL, compound 50 μM (FIG. 20E)"}, "[1]": {"test_system": "P. aeruginosa mutant PAO-JP1", "experiment": "Pyocyanin quantification in P. aeruginosa strain PAO-JP1", "assay_type": "cell-based, Pseudomonas aeruginosa", "settings": "PAO-JP1, 6 h", "experimental": "To follow up our previous study regarding the QS modulatory activity of doscadenamide A (1a) on wild-type P. aeruginosa and extend reporter gene assay studies, we examined the QS activation of different doscadenamides using a QS system deficient strain, PAO-JP1. PAO-JP1 is a P. aeruginosa mutant with a lasl deletion that cannot produce C12. […]\n[…] The culture was then spun down for 10 min at the maximum speed, and the supernatant was collected and filtered using […] Eppendorf filters. 500 μL of the sterile supernatant were added to 500 μL CHCl3 in an Eppendorf tube. Tube shaking allowed for the extraction of pyocyanin in the CHCl3 layer. This layer was then added to 150 μL of 0.2 N HCl in another Eppendorf tube. After shaking, the aqueous layer and the organic layer were separated. 100 μL of the aqueous layer were transferred to a clear bottomed 384-well plate and the absorbance was measured at […] to quantify the pyocyanin production. Data was analyzed using GraphPad Prism 5 software."}, "[2]": {"test_system": "pTIM5319 (lacks the AHL-binding site LasR)", "experiment": "Related reporter pTIM5319 lacking a functional AHL-binding domain", "assay_type": "cell-based", "settings": "E. coli, 37° C., 6 h", "experimental": "(§1) FIG. 16. depicts activating activity of doscadenamide A (1a) in related reporter pTIM5319, which lacks a functional AHL-binding domain. The bacterial cultures were treated with 1a in a dose-response manner and solvent control at 37° C. for 6 h before fluorescence was measured. Results are expressed as fold activation compared to solvent control. Data are presented as mean±SD, **P<0.01, ****P<0.0001, compared to solvent control using one-way ANOVA (n=3).\n(§2) Lett. 1998, 163 (2), 185-192]. […] 2011, 7 (4), 1205-1216]. To validate the activating activity of 1a, its effect on wild-type P. aeruginosa was tested. […] For comparison, the other three diastereomers 1b, 1c and 1d were also included in the test. Such superagonists are expected to artificially regulate virulence factor production such as pyocyanin and activate QS at lower bacterial cell populations, thus to stimulate the host immune system to clear the infection when fewer bacterial cells are present [Galloway, W.; Hodgkinson, J.; Bovvden, S.; Welch, M.; Spring, D., Trends Microbiol. 2012, 20 (9), 449-458].\nDoscadenamide A (1a) activates QS, which was established using the 3-oxo-C12-HSL-responsive reporter plasmid pSB1075, a plasmid encoding LasR (the C12 HSL receptor in Pseudomonas aeruginosa) and containing a light-producing luxCDABE cassette expressed in Escherichia coli. […]"}, "LasR [3]": {"molecular_target": "T1, LasR (Pseudomonas aeruginosa, UniProt P25084)", "T1 sequence (P25084 whole entry)": "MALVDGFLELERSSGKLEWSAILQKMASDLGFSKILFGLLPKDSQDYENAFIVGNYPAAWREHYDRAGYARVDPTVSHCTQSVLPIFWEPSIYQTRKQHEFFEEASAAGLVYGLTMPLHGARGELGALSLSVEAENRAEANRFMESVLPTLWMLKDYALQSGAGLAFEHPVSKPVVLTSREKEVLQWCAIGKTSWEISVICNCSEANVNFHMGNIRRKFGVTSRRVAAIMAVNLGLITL", "experiment": "Quorum sensing reporter assay, pSB1075 (lasR-luxCDABE) expressed in E. coli", "assay_type": "cell-based", "design": "expressed in transfected cells; host or cells: Escherichia coli carrying plasmid pSB1075", "settings": "37° C., 6 h, dose-response, vs solvent control", "experimental": "as §1, with “15.” for “16.”, “pSB1075, the lasR-luxCDABE” for “related”, “constructs expressed in E. coli.” for “pTIM5319, which lacks a functional AHL-binding domain.”\nas §2, with “449-458]. […]” for “449-458].”\nDoscadenamide A (1a) in a dose-response manner and EtOH control were added to the corresponding wells in a 96-well plate and the solvent was allowed to evaporate. […] The plate was incubated at 37° C. for 6 h before the measurement of luminescence."}, "wild-type P. aeruginosa": {"test_system": "wild-type P. aeruginosa", "experiment": "Pyocyanin production in wild-type P. aeruginosa", "assay_type": "cell-based, Pseudomonas aeruginosa", "settings": "10 PM, 6 h shaking at 37° C.", "experimental": "Data are presented as mean±SD, **P<0.01, ****P<0.0001, compared to solvent control using one-way ANOVA (n=3).\nas §2"}, "LasR [4]": {"molecular_target": "T1, LasR", "settings": "cited from earlier work"}, "cancer cells": {"test_system": "cancer cells", "settings": "cited from earlier work"}},
  "note": "Entries after “also recorded” stand apart in the source; their conditions may differ.",
  "data": [
    {"molecule": "CCCCCC[C@@H](C)C(=O)NCCCC[C@H]1C(OC)=CC(=O)N1C(=O)[C@H](C)CCCCCC", "note": "[Compound 1k, Doscadenamide S4]", "values": [
      {"measurement": "synergistic effect with TRAIL / sensitization (Bliss independence)", "setting": "MDA-MB-231 cells", "value": "best agents to sensitize MDA-MB-231 cells"},
      {"measurement": "cytotoxicity compared to doscadenamide A (1a)", "setting": "MDA-MB-231 cells", "value": "improved cytoxicity"}
    ]},
    {"molecule": "C=CCCCC[C@@H](C)C(=O)NCCCC[C@H]1C(OC)=CC(=O)N1C(=O)[C@H](C)CCCCC=C", "note": "[Compound 1f, Doscadenamide F]", "values": [
      {"measurement": "QS activating activity at <100 μM", "setting": "V. harveyi BB120 strain", "value": "reduced"},
      {"measurement": "cytotoxicity compared to doscadenamide A (1a)", "setting": "MDA-MB-231 cells", "value": "improved cytoxicity"}
    ]},
    {"molecule": "C#CCCCC[C@@H](C)C(=O)NCCCC[C@@H]1NC(=O)C=C1OC", "note": "[Compound 2a, Doscadenamide S8]", "values": [
      {"measurement": "QS activation (bioluminescence, ΔLUM normalized by OD600)", "setting": "V. harveyi BB120 strain", "value": "consistently inhibited QS signaling"},
      {"measurement": "PARP cleavage (Western blot)", "setting": "PARP", "value": "no effect"},
      {"measurement": "cell viability after pretreatment and TRAIL co-treatment", "setting": "MDA-MB-231 cells", "value": "no effect on cell viability"},
      {"measurement": "synergistic effect with TRAIL / sensitization (Bliss independence)", "setting": "MDA-MB-231 cells", "value": "synergistic effect with TRAIL, except 2a"},
      {"measurement": "QS activation (pyocyanin production) without normalization for bacterial cell count", "setting": "[1]", "value": "did not show any level of activation"},
      {"measurement": "QS-activating effect (pyocyanin production normalized for cell number), in words", "setting": "[1]; 100 μM", "value": "minimal QS-activating effect; also recorded: essentially inactive"}
    ]},
    {"molecule": "C#CCCCC[C@@H](C)C(=O)NCCCC[C@H]1C(OC)=CC(=O)N1C(=O)[C@H](C)CCCCC#C", "note": "[Compound 1a, (R)-N-(4-((S)-3-methoxy-1-((R)-2-methyloct-7-ynoyl)-5-oxo-2,5-dihydro-1H-pyrrol-2-yl)butyl)-2-methyloct-7-ynamide]", "values": [
      {"measurement": "activation of related reporter pTIM5319", "setting": "[2]", "value": "abolished"},
      {"measurement": "activation of 3-oxo-C12-HSL-responsive reporter plasmid pSB1075 (QS activation)", "setting": "LasR [3]", "value": "can activate; also recorded: activates QS"},
      {"measurement": "QS activation (bioluminescence, ΔLUM normalized by OD600)", "setting": "V. harveyi BB120 strain", "value": "activating across the concentration range tested"},
      {"measurement": "production of QS pigment pyocyanin / QS modulation", "setting": "wild-type P. aeruginosa", "value": "elevated"},
      {"measurement": "PARP cleavage (Western blot)", "setting": "PARP", "value": "evident presence of cleaved PARP"},
      {"measurement": "cell viability after pretreatment and TRAIL co-treatment", "setting": "MDA-MB-231 cells", "value": "clear decrease in cell viability"},
      {"measurement": "synergistic effect with TRAIL / sensitization (Bliss independence)", "setting": "MDA-MB-231 cells", "value": "can effectively improve TRAIL-induced apoptosis"},
      {"measurement": "QS activation (pyocyanin production normalized for cell number)", "setting": "[1]; 100 μM", "value": 3, "unit": "fold"}
    ]},
    {"molecule": "C#CCCCC[C@@H](C)C(=O)N1C(=O)C=C(OC)[C@@H]1CCCCNC(=O)OC(C)(C)C", "note": "[Compound 3a, Doscadenamide S10]", "values": [
      {"measurement": "QS activation (bioluminescence, ΔLUM normalized by OD600)", "setting": "V. harveyi BB120 strain", "value": "activating across the concentration range tested"},
      {"measurement": "QS activation (pyocyanin production normalized for cell number)", "setting": "[1]; 100 μM", "value": 3, "unit": "fold"}
    ]},
    {"molecule": "TRAIL: tumor necrosis factor-related apoptosis-inducing ligand, a TNF family cytokine", "values": [
      {"measurement": "fraction of cells undergoing apoptotic death", "setting": "MDA-MB-231 cells; MDA-MB-231, TRAIL alone 20 ng/mL", "value": "approximately 20%"},
      {"measurement": "cell viability remaining", "setting": "MDA-MB-231 cells; MDA-MB-231, TRAIL alone 500 ng/mL", "value": 50, "unit": "%"}
    ]},
    {"molecule": "CCCCCCC[C@@H]1C[C@H]1CCC(=O)O", "note": "[lyngbyoic acid]", "values": [
      {"measurement": "LasR / quorum sensing modulation reported in the literature", "setting": "LasR [4]", "value": "strongly inhibit the activity of LasR"}
    ]},
    {"molecule": "CCCCCC[C@@H](C)C(=O)N1C(=O)C=C(OC)[C@@H]1CCCCNC(=O)OC(C)(C)C", "note": "[Compound 3c, Doscadenamide S12]", "values": [
      {"measurement": "QS activation (bioluminescence, ΔLUM normalized by OD600)", "setting": "V. harveyi BB120 strain", "value": "only had a minor activating trend"},
      {"measurement": "cell viability after pretreatment and TRAIL co-treatment", "setting": "MDA-MB-231 cells", "value": "enhanced activity"},
      {"measurement": "synergistic effect with TRAIL / sensitization (Bliss independence)", "setting": "MDA-MB-231 cells", "value": "best agents to sensitize MDA-MB-231 cells"},
      {"measurement": "cytotoxicity compared to doscadenamide A (1a)", "setting": "MDA-MB-231 cells", "value": "improved cytoxicity"},
      {"measurement": "QS activation (pyocyanin production normalized for cell number)", "setting": "[1]; 100 μM", "value": 5, "unit": "fold"}
    ]},
    {"molecule": "CCCCCCCCCC(=O)CC(=O)N[C@H]1CCOC1=O", "note": "[Compound C12, reference compound]", "values": [
      {"measurement": "synergistic effect on TRAIL-induced apoptosis reported in the literature", "setting": "cancer cells", "value": "synergistic effect on TRAIL-induced apoptosis"},
      {"measurement": "QS activation (pyocyanin production normalized for cell number)", "setting": "[1]; 100 μM", "value": "~3", "unit": "fold"}
    ]},
    {"molecule": "C=C(CCCCC)CCCC(=O)O", "note": "[pitinoic acid A]", "values": [
      {"measurement": "LasR / quorum sensing modulation reported in the literature", "setting": "LasR [4]", "value": "P. aeruginosa quorum sensing inhibitor"}
    ]},
    {"molecule": "C#CCCCCCC(=O)NCCCC[C@H]1C(OC)=CC(=O)N1C(=O)[C@H](C)CCCCC#C", "note": "[Compound 1j, Doscadenamide J]", "values": [
      {"measurement": "QS activating activity at <100 μM", "setting": "V. harveyi BB120 strain", "value": "reduced"}
    ]},
    {"molecule": "C=CCCCC[C@@H](C)C(=O)N1C(=O)C=C(OC)[C@@H]1CCCCNC(=O)OC(C)(C)C", "note": "[Compound 3b, Doscadenamide S11]", "values": [
      {"measurement": "cytotoxicity compared to doscadenamide A (1a)", "setting": "MDA-MB-231 cells", "value": "improved cytoxicity"},
      {"measurement": "QS activation (pyocyanin production normalized for cell number)", "setting": "[1]; 100 μM", "value": 4, "unit": "fold"}
    ]}
  ]
}
